Biological target: PD-1/PD-L1 (Homo sapiens (Human), UniProt Q9NZQ7)
Test: PD-1/PD-L1 biochemical protein-protein interaction assay (ALPHA)
Conditions: 0.3 nM His tagged PD-L1, 2.5 nM biotinylated Fc-PD-1, 60 minutes at 25° C., read-out: IC50 PD-L1-PD1

Chain of PD-1/PD-L1 (Q9NZQ7 19-238): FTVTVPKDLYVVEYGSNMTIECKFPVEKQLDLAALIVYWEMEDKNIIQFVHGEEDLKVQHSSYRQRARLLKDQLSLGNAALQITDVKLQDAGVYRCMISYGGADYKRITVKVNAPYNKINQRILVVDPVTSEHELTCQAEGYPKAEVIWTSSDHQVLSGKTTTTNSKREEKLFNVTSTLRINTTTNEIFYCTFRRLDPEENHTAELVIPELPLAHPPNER

| Structure (SMILES) | IC50 [nM] |
| --- | --- |
| COc1nc(-c2cccc(-c3cccc(-c4cnc(CNCCO)c(OC)n4)c3F)c2Cl)ccc1CNCCO [compound 615] | 0.291 |
| COc1nc(-c2cccc(-c3cccc(-c4cnc(CN5CC[C@@H](CO)C5)c(OC)n4)c3F)c2Cl)ccc1CN1CC[C@@H](CO)C1 [compound 616] | 0.069 |
| COc1nc(-c2cccc(-c3cccc(-c4cnc(CN5CC6(C5)CN(C(C)=O)C6)c(OC)n4)c3F)c2Cl)ccc1CN1CC2(C1)CN(C(C)=O)C2 [compound 617] | 0.064 |
| COc1nc(-c2cccc(-c3cccc(-c4cnc(CN5CC6(CCC(=O)N6)C5)c(OC)n4)c3F)c2Cl)ccc1CN1CC2(CCC(=O)N2)C1 [compound 618] | 0.064 |
| COc1nc(-c2cccc(-c3cccc(-c4cnc(CN5CC(O)C5)c(OC)n4)c3F)c2Cl)ccc1CN1CC(O)C1 [compound 619] | 0.178 |
| COc1nc(-c2cccc(-c3cccc(-c4cnc(CNC[C@@H]5CCC(=O)N5)c(OC)n4)c3Cl)c2Cl)cnc1CNCCOc1ccccn1 [compound 620] | 0.101 |
| COc1nc(-c2cccc(-c3cccc(-c4cnc(CN5CC(C)(N)C5)c(OC)n4)c3Cl)c2Cl)cnc1CN1CC(C)(N)C1 [compound 621] | 1.05 |
| COc1nc(-c2cccc(-c3cccc(-c4cnc(CN5CC[C@H](CO)C5)c(OC)n4)c3Cl)c2Cl)cnc1CN1CC[C@H](CO)C1 [compound 624] | 0.152 |
| COc1nc(-c2cccc(-c3cccc(-c4cnc(CN5CC[C@@H](CO)C5)c(OC)n4)c3Cl)c2Cl)cnc1CN1CC[C@@H](CO)C1 [compound 626] | 0.064 |
| COc1nc(-c2cccc(-c3cccc(-c4cnc(CN5CC(C)(O)C5)c(OC)n4)c3Cl)c2Cl)cnc1CN1CC(O)C1 [compound 629] | 0.083 |
| COc1nc(-c2cccc(-c3cccc(-c4cnc(CN5CCC(CO)(CO)C5)c(OC)n4)c3Cl)c2Cl)cnc1CN1CCC(CO)(CO)C1 [compound 634] | 0.064 |
| COc1nc(-c2cccc(-c3cccc(-c4cnc(CN5CC(C(C)(C)O)C5)c(OC5CC5)n4)c3Cl)c2Cl)ccc1CN1CC(C(C)(C)O)C1 [compound 635] | 0.098 |
| COc1nc(-c2cccc(-c3cccc(-c4cnc(CN5CC6(CCC(=O)N6)C5)c(OC5CC5)n4)c3Cl)c2Cl)ccc1CN1CC2(CCC(=O)N2)C1 [compound 636] | 0.12 |

Other lines, results leading:

| IC50 [nM] | Structure (SMILES) |
| --- | --- |
| 0.26 | COc1nc(-c2cccc(-c3cccc(-c4cnc(CN5CC(C)(N)C5)c(OC)n4)c3Cl)c2Cl)cnc1CNC[C@@H]1CCC(=O)N1 [compound 622] |
| 0.074 | COc1nc(-c2cccc(-c3cccc(-c4cnc(CN5CC[C@H](CO)C5)c(OC)n4)c3Cl)c2Cl)cnc1CNC[C@@H]1CCC(=O)N1 [compound 625] |
| 0.081 | COc1nc(-c2cccc(-c3cccc(-c4cnc(CN5CC[C@@H](CO)C5)c(OC)n4)c3Cl)c2Cl)cnc1CNC[C@@H]1CCC(=O)N1 [compound 627] |
| 0.064 | COc1nc(-c2cccc(-c3cccc(-c4cc(C)c(CNC[C@@H]5CCC(=O)N5)c(OC)n4)c3Cl)c2Cl)cnc1CNC[C@@H]1CCC(=O)N1 [compound 628] |
| 0.437 | COc1nc(-c2cccc(-c3cccc(-c4cnc(CN)c(OC)n4)c3Cl)c2Cl)ccc1CNC[C@@H]1CCC(=O)N1 [compound 630] |
| 0.064 | COc1nc(-c2cccc(-c3cccc(-c4cnc(CN5CC(C)(O)C5)c(OC)n4)c3Cl)c2Cl)ccc1CNC[C@@H]1CCC(=O)N1 [compound 631] |
| 0.172 | COc1nc(-c2cccc(-c3cccc(-c4cnc(CN5CC6(C5)CN(C(C)=O)C6)c(OC)n4)c3Cl)c2Cl)ccc1CNC[C@@H]1CCC(=O)N1 [compound 632] |
| 0.064 | COc1nc(-c2cccc(-c3cccc(-c4cnc(CN5CC6(CNC(=O)C6)C5)c(OC)n4)c3Cl)c2Cl)ccc1CNC[C@@H]1CCC(=O)N1 [compound 633] |
| 0.134 | COc1nc(-c2cccc(-c3cccc(-c4cnc(CN5CC6(CNC(=O)C6)C5)c(OC5CC5)n4)c3Cl)c2Cl)ccc1CN1CC2(CNC(=O)C2)C1 [compound 637] |
| 0.079 | COc1nc(-c2cccc(-c3cccc(-c4cnc(CNC[C@@H]5CCC(=O)N5)c(OC5CC5)n4)c3Cl)c2Cl)ccc1CNC[C@@H]1CCC(=O)N1 [compound 638] |

From patent US10710986B2, “PD-1/PD-L1 inhibitors” (Gilead Sciences, Inc., priority 2018, dated 2020)
